Experimental data reported in PubChem BioAssay (NCI).
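Compound exposure: 48 hours, 5 concentrations, 96-well plates. TGI is the concentration that stops growth completely.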

Experiments:
Assay in all cases: NCI anticancer screen, dose series, 48 h
786-0 renal = test system: 786-0 renal
A498 renal = test system: A498 renal
A549 NSCLC = test system: A549 NSCLC
ACHN renal = test system: ACHN renal
BT-549 breast = test system: BT-549 breast
CAKI-1 renal = test system: CAKI-1 renal
CCRF-CEM leukemia = test system: CCRF-CEM leukemia
COLO 205 colon = test system: COLO 205 colon
DU-145 prostate = test system: DU-145 prostate
EKVX NSCLC = test system: EKVX NSCLC
HCC-2998 colon = test system: HCC-2998 colon
HCT-116 colon = test system: HCT-116 colon
HCT-15 colon = test system: HCT-15 colon
HL-60(TB) leukemia = test system: HL-60(TB) leukemia
HOP-62 NSCLC = test system: HOP-62 NSCLC
HOP-92 NSCLC = test system: HOP-92 NSCLC
HS 578T breast = test system: HS 578T breast
HT29 colon = test system: HT29 colon
IGROV1 ovarian = test system: IGROV1 ovarian
K-562 leukemia = test system: K-562 leukemia
KM12 colon = test system: KM12 colon
LOX IMVI melanoma = test system: LOX IMVI melanoma
M14 melanoma = test system: M14 melanoma
MALME-3M melanoma = test system: MALME-3M melanoma
MDA-MB-231 breast = test system: MDA-MB-231 breast
MDA-MB-435 = test system: MDA-MB-435
MDA-N = test system: MDA-N
MOLT-4 leukemia = test system: MOLT-4 leukemia
NCI-H226 lung = test system: NCI-H226 lung
NCI-H23 lung = test system: NCI-H23 lung
NCI-H460 lung = test system: NCI-H460 lung
NCI-H522 lung = test system: NCI-H522 lung
NCI/ADR-RES ovarian = test system: NCI/ADR-RES ovarian
OVCAR-5 ovarian = test system: OVCAR-5 ovarian
OVCAR-8 ovarian = test system: OVCAR-8 ovarian
PC-3 prostate = test system: PC-3 prostate
RPMI-8226 leukemia = test system: RPMI-8226 leukemia
SF-268 CNS = test system: SF-268 CNS
SF-295 CNS = test system: SF-295 CNS
SF-539 CNS = test system: SF-539 CNS
SK-MEL-2 melanoma = test system: SK-MEL-2 melanoma
SK-MEL-28 melanoma = test system: SK-MEL-28 melanoma
SK-MEL-5 melanoma = test system: SK-MEL-5 melanoma
SK-OV-3 ovarian = test system: SK-OV-3 ovarian
SN12C renal = test system: SN12C renal
SNB-19 CNS = test system: SNB-19 CNS
SNB-75 CNS = test system: SNB-75 CNS
SR leukemia = test system: SR leukemia
SW-620 colon = test system: SW-620 colon
T-47D breast = test system: T-47D breast
TK-10 renal = test system: TK-10 renal
U251 CNS = test system: U251 CNS
UACC-257 melanoma = test system: UACC-257 melanoma
UACC-62 melanoma = test system: UACC-62 melanoma
UO-31 renal = test system: UO-31 renal
MCF7 breast = test system: MCF7 breast
OVCAR-3 ovarian = test system: OVCAR-3 ovarian
OVCAR-4 ovarian = test system: OVCAR-4 ovarian
RXF 393 renal = test system: RXF 393 renal

With `C=C1CC(Cn2cc(C)c(=O)[nH]c2=O)(c2ccc(Cl)cc2)OC1=O` (stereo not drawn) the TGI (786-0 renal) was 2.99 µM, the TGI (A498 renal) was 22.8 µM and the TGI (A549 NSCLC) was 32.2 µM. The TGI (ACHN renal) was 8 µM, the TGI (BT-549 breast) was 2.86 µM and the TGI (CAKI-1 renal) was 3.93 µM. It also gave a TGI (CCRF-CEM leukemia) of 4.01 µM, a TGI (COLO 205 colon) of 2.96 µM and a TGI (DU-145 prostate) of 18.3 µM. It also gave a TGI (EKVX NSCLC) of 18.7 µM, a TGI (HCC-2998 colon) of 8.43 µM and a TGI (HCT-116 colon) of 3.29 µM. For the same molecule, the TGI (HCT-15 colon) was 2.37 µM, the TGI (HL-60(TB) leukemia) was 3.93 µM and the TGI (HOP-62 NSCLC) was 33 µM. For the same molecule, the TGI (HOP-92 NSCLC) was 1.58 µM, the TGI (HS 578T breast) was 25.5 µM and the TGI (HT29 colon) was 3.64 µM. It also gave a TGI (IGROV1 ovarian) of 3.41 µM, a TGI (K-562 leukemia) of 21.1 µM and a TGI (KM12 colon) of over 43 µM. The TGI (LOX IMVI melanoma) was 3.2 µM, the TGI (M14 melanoma) was 2.54 µM and the TGI (MALME-3M melanoma) was 4.89 µM. For the same molecule, the TGI (MDA-MB-231 breast) was 9.82 µM, the TGI (MDA-MB-435) was 15.1 µM and the TGI (MDA-N) was 11.6 µM. The TGI (MOLT-4 leukemia) was 3.87 µM, the TGI (NCI-H226 lung) was 30.6 µM and the TGI (NCI-H23 lung) was 10.4 µM. For the same molecule, the TGI (NCI-H460 lung) was 36.1 µM, the TGI (NCI-H522 lung) was 1.35 µM and the TGI (NCI/ADR-RES ovarian) was 17.9 µM. The TGI (OVCAR-5 ovarian) was 29.4 µM, the TGI (OVCAR-8 ovarian) was 15.4 µM and the TGI (PC-3 prostate) was 12.5 µM. For the same molecule, the TGI (RPMI-8226 leukemia) was 1.95 µM, the TGI (SF-268 CNS) was 42.1 µM and the TGI (SF-295 CNS) was over 34 µM. It also gave a TGI (SF-539 CNS) of 26 µM, a TGI (SK-MEL-2 melanoma) of 5.48 µM and a TGI (SK-MEL-28 melanoma) of 4.44 µM. For the same molecule, the TGI (SK-MEL-5 melanoma) was 6.43 µM, the TGI (SK-OV-3 ovarian) was 28.1 µM and the TGI (SN12C renal) was 21.2 µM. It also gave a TGI (SNB-19 CNS) of over 55.5 µM, a TGI (SNB-75 CNS) of 15.4 µM and a TGI (SR leukemia) of 8.97 µM. It also gave a TGI (SW-620 colon) of 3.38 µM, a TGI (T-47D breast) of 5.19 µM and a TGI (TK-10 renal) of 3.61 µM. The TGI (U251 CNS) was 30 µM, the TGI (UACC-257 melanoma) was 3.75 µM and the TGI (UACC-62 melanoma) was 7.48 µM. The TGI (UO-31 renal) was 25.9 µM.

Molecule `COc1cc(/C=C2\N=C(c3ccccc3)N(c3cc4cc(Sc5ccccc5)ccc4[nH]3)C2=O)cc(OC)c1OC` has a TGI (786-0 renal) of 26 µM, a TGI (A498 renal) of 42.9 µM and a TGI (A549 NSCLC) of over 75 µM. For the same molecule, the TGI (ACHN renal) was over 75 µM, the TGI (BT-549 breast) was 31.6 µM and the TGI (CAKI-1 renal) was over 75 µM. It also gave a TGI (CCRF-CEM leukemia) of 51.7 µM, a TGI (COLO 205 colon) of 21.3 µM and a TGI (DU-145 prostate) of 37.9 µM. It also gave a TGI (EKVX NSCLC) of 67.5 µM, a TGI (HCC-2998 colon) of 22.9 µM and a TGI (HCT-116 colon) of 23.9 µM. It also gave a TGI (HCT-15 colon) of 50.2 µM, a TGI (HL-60(TB) leukemia) of 31.9 µM and a TGI (HOP-62 NSCLC) of 41.2 µM. For the same molecule, the TGI (HOP-92 NSCLC) was 29.8 µM, the TGI (HS 578T breast) was over 75 µM and the TGI (HT29 colon) was 44.8 µM. It also gave a TGI (IGROV1 ovarian) of over 75 µM, a TGI (K-562 leukemia) of 17.9 µM and a TGI (KM12 colon) of 56.8 µM. It also gave a TGI (LOX IMVI melanoma) of 22.2 µM, a TGI (M14 melanoma) of 22.8 µM and a TGI (MALME-3M melanoma) of 11.1 µM. For the same molecule, the TGI (MCF7 breast) was 25.1 µM, the TGI (MDA-MB-435) was 31 µM and the TGI (MDA-N) was 15.9 µM. For the same molecule, the TGI (MOLT-4 leukemia) was 26.9 µM, the TGI (NCI-H226 lung) was 28.9 µM and the TGI (NCI-H23 lung) was over 75 µM. It also gave a TGI (NCI-H460 lung) of 35.2 µM, a TGI (NCI-H522 lung) of 12.9 µM and a TGI (NCI/ADR-RES ovarian) of 59.1 µM. For the same molecule, the TGI (OVCAR-3 ovarian) was 60.1 µM, the TGI (OVCAR-4 ovarian) was over 75 µM and the TGI (OVCAR-5 ovarian) was over 75 µM. For the same molecule, the TGI (OVCAR-8 ovarian) was 41.5 µM, the TGI (RXF 393 renal) was 26.8 µM and the TGI (SF-268 CNS) was 18.2 µM. For the same molecule, the TGI (SF-295 CNS) was 73.2 µM, the TGI (SF-539 CNS) was 24.6 µM and the TGI (SK-MEL-28 melanoma) was 35.8 µM. It also gave a TGI (SK-MEL-5 melanoma) of 20.4 µM, a TGI (SK-OV-3 ovarian) of over 75 µM and a TGI (SN12C renal) of 52.6 µM. For the same molecule, the TGI (SNB-19 CNS) was over 75 µM, the TGI (SNB-75 CNS) was 56.2 µM and the TGI (SR leukemia) was 12.3 µM. The TGI (SW-620 colon) was 68 µM, the TGI (T-47D breast) was 34.2 µM and the TGI (UACC-257 melanoma) was 40.3 µM. It also gave a TGI (UACC-62 melanoma) of 24.5 µM and a TGI (UO-31 renal) of 48.9 µM.
